Results published in patent US20150342954A1, “2-BENZYL, 3-(PYRIMIDIN-2-YL) SUBSTITUTED PYRAZOLES USEFUL AS SGC STIMULATORS” (IRONWOOD PHARMACEUTICALS, INC., priority 2011, published 2015).
Where two headings read alike, the source gives them in different places.

How the values were obtained:
[1] = molecular target: T1, soluble guanylate cyclase (sGC) (Homo sapiens, UniProt Q02108+Q02153); test: sGC-HEK-cGMP assay (run with SNP incubation); format: cell-based; conditions: for Emax: 10 μM SNP, 100% = 30 μM BAY 41-2272 with 10 μM SNP, read-out: HEK assay Emax-unconstrained (Percent); for HEK MEC-10: concentration that would elicit 10% of the Emax in the presence of 10 μM SNP; for EC50: in the presence of 10 μM SNP
T1 construct: endogenously expressing soluble guanylate cyclase (sGC); endogenous in cells; host or cells: HEK293
T1 sequence (Q02153 1-619): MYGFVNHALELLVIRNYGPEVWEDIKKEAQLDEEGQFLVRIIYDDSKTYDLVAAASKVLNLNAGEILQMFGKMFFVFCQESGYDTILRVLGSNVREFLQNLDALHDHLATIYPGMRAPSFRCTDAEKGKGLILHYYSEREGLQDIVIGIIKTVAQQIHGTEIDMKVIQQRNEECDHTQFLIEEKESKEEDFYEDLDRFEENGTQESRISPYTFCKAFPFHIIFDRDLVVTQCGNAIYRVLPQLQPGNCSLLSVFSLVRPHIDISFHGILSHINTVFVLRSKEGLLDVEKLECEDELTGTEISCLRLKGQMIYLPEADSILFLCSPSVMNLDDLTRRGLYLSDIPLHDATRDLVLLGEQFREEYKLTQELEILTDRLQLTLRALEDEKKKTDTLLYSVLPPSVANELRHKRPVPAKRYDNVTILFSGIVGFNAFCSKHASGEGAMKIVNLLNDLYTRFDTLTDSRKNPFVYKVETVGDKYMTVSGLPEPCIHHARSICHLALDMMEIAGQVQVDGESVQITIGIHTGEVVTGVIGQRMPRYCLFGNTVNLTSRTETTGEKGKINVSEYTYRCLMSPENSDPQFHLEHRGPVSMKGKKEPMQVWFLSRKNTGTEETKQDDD
T1 sequence (Q02108 1-690): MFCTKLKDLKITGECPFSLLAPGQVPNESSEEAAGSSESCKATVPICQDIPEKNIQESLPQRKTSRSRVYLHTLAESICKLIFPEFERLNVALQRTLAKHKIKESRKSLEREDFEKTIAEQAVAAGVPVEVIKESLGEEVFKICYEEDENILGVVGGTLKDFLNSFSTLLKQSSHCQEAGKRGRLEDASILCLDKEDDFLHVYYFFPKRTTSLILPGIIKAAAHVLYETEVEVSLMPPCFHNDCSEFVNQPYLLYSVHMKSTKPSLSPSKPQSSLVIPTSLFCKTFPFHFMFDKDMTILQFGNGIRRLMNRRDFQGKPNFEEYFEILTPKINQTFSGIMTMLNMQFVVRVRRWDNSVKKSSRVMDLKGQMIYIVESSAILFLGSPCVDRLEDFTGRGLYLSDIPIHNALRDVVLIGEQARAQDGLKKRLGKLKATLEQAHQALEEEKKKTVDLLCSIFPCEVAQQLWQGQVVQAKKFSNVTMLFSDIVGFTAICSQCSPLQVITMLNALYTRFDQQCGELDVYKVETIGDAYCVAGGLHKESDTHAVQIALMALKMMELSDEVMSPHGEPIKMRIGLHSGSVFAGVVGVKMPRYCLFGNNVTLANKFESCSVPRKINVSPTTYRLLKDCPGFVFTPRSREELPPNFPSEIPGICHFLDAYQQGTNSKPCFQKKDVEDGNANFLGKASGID
Procedure, shortened: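 HEK293 cells with endogenous sGC were pre-treated 15 min at 37 °C with 0.5 mM IBMX, then exposed to test compound plus sodium nitroprusside for 10 min at 37 °C. Cells were lysed in 0.1 M HCl (4 °C, 30 min), and cGMP was quantified by LC/MS against a standard curve. EC50 values came from concentration-response curves.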

[2] = molecular target: T2, Human soluble guanylate cyclase enzyme (hsGC) (Homo sapiens, UniProt Q02108+Q02153); test: Purified human sGC enzyme activity assay (without SNP); format: biochemical; conditions: compound at 30 μM, absence of SNP, fold over DMSO control
T2 construct: purchased Enzo Inc. ALX-201-177
T2 sequence (Q02153 1-619): T1 sequence (Q02153 1-619)
T2 sequence (Q02108 1-690): T1 sequence (Q02108 1-690)
Experimental: Biological Activity Measurements by the Purified Human sGC Enzyme Activity Assay
(§1) Human soluble guanylate cyclase enzyme (hsGC) obtained from Enzo Inc. (P/N: ALX-201-177) was used to evaluate the activity of test compounds. The assay reactions contained 0.1 M Tris (pH 8.0), 0.5 mg/mL BSA (pH 8.0), 2 mM DTT, 2 mM MgCl2, 300 μM GTP, 1 mM 3-isobutyl-1-methylxanthine (IBMX) and 5 ng human soluble guanylate cyclase enzyme. Test compounds in DMSO were then added (2 μL, 10 or 30 μM final concentration) and incubated (200 μL, 96-well plate format) at 37° C. for 30 minutes. The controls were carried out using 2 μL DMSO. After the 30 minute incubation, the reaction was stopped with the addition of 200 μl of cold methanol. The plate was then centrifuged at 3,200 rpm for 10 minutes at room temperature. Supernatants (200 μL) were collected and transferred to a new 96 well plate for analysis.
(§2) An 8 point cGMP (Sigma-Aldrich P/N: G6129) standard curve was prepared in assay buffer ranging from 0.156-20 μM. Samples for the cGMP standard curve were then diluted with an equal volume of methanol resulting in final cGMP concentrations of 0.078-10 μM.
(§3) The cGMP standard curve was generated using GraphPad Prism Software.
(§4) Calculations: Specific Activity was determined by the amount of cGMP formed (nmoles) per mg of sGC per min. Enzyme “fold-change” was calculated by dividing Specific Activity for test compounds by Specific Activity of DMSO controls.

[3] = molecular target: T2, Human soluble guanylate cyclase enzyme (hsGC); test: Purified human sGC enzyme synergy assay in the presence of 1 μM sodium nitroprusside (SNP); format: biochemical; conditions: compound at 30 μM, presence of 1 μM SNP
Experimental: as §1, §2, §3, §4
Biological Measurement by the Purified Human sGC Enzyme Synergy Performed in the Presence of Sodium Nitroprusside (SNP), a Nitric Oxide Donor
Enzyme assays were performed as described above, but was done in the absence or presence of 1 μM sodium nitroprusside (SNP).

[4] = Table 3A, top of concentration-response curve not fitted to 100%
[5] = Table 3D, read-out: HEK assay EC50
[6] = top of concentration-response curve not fitted to 100%, Table 3D, read-out: HEK assay EC50-unconstrained
[7] = Table 3B, top of concentration-response curve not fitted to 100%
[8] = Table 3E, read-out: HEK assay EC50
[9] = top of concentration-response curve not fitted to 100%, Table 3E, read-out: HEK assay EC50-unconstrained

| Emax [1, 4] [%] | HEK MEC-10 ([1]; Table 3D) | EC50 [1, 5] [µM] | EC50 [1, 6] [µM] | Enzyme Activity (increase at 30 μM without SNP) ([2]; Table 5A) | Enzyme Activity (increase at 30 μM with SNP) ([3]; Table 5A) | Emax [1, 7] [%] | HEK MEC-10 ([1]; Table 3E) | EC50 [1, 8] [µM] | EC50 [1, 9] [µM] | Enzyme Activity (increase at 30 μM without SNP) ([2]; Table 5B) | Enzyme Activity (increase at 30 μM with SNP) ([3]; Table 5B) | SMILES |
| --- | --- | --- | --- | --- | --- | --- | --- | --- | --- | --- | --- | --- |
| 20 to 40 | B (0.01 to <0.1 μM) | 40 to 60 | 0.01 to 0.5 | A (no increase to <2 fold increase) | B (2 to <5 fold increase) |  |  |  |  |  |  | O=c1[nH]c(-c2cc(-c3ccon3)n(Cc3cccnc3F)n2)ncc1F [Compound 67] |
|  |  |  |  |  |  | 40 to 60 | D (1 to <10 μM) | 40 to 60 | 5 to 10 | A (no increase to <2 fold increase) | C (5 to <10 fold increase) | O=c1[nH]c(-c2cc(-c3ccccn3)n(Cc3ccccc3F)n2)ncc1F [Compound 68] |
|  |  |  |  |  |  | 80 to 100 | A (0.001 to <0.01 μM) | 60 to 100 | 0.5 to 1 | B (2 to <5 fold increase) | D (10 or <20 fold increase) | Nc1nc(-c2cc(-c3ccon3)n(Cc3ccccc3F)n2)ncc1NC(=O)C1(N)CC1 [Compound 69] |
|  |  |  |  |  |  | 40 to 60 | C (0.1 to <1 μM) | 40 to 60 | 0.01 to 0.5 | C (5 to <10 fold increase) | D (10 or <20 fold increase) | O=c1[nH]c(-c2cc(-c3ccon3)n(Cc3ccc(F)cc3F)n2)ncc1F [Compound 70] |
|  |  |  |  |  |  | 60 to 80 | C (0.1 to <1 μM) | 60 to 100 | 1 to 5 | A (no increase to <2 fold increase) | D (10 or <20 fold increase) | Nc1ccnc(-c2cc(-c3ccon3)n(Cc3ccc(F)cc3F)n2)n1 [Compound 71] |
|  |  |  |  |  |  | 40 to 60 | B (0.01 to <0.1 μM) | 40 to 60 | 0.01 to 0.5 | D (10 or <20 fold increase) | D (10 or <20 fold increase) | O=c1[nH]c(-c2cc(-c3ccon3)n(Cc3cc(F)ccc3F)n2)ncc1F [Compound 72] |
|  |  |  |  |  |  | 80 to 100 | B (0.01 to <0.1 μM) | 60 to 100 | 0.01 to 0.5 | D (10 or <20 fold increase) | E (20 to 30 fold increase) | Oc1nc(-c2cc(-c3ccon3)n(Cc3cccc(F)c3F)n2)ncc1Cl [Compound 76] |

More lines, now with the values behind:

| SMILES | Emax [1, 4] [%] | HEK MEC-10 ([1]; Table 3D) | EC50 [1, 5] [µM] | EC50 [1, 6] [µM] | Enzyme Activity (increase at 30 μM without SNP) ([2]; Table 5A) | Enzyme Activity (increase at 30 μM with SNP) ([3]; Table 5A) | Emax [1, 7] [%] | HEK MEC-10 ([1]; Table 3E) | EC50 [1, 8] [µM] | EC50 [1, 9] [µM] | Enzyme Activity (increase at 30 μM without SNP) ([2]; Table 5B) | Enzyme Activity (increase at 30 μM with SNP) ([3]; Table 5B) |
| --- | --- | --- | --- | --- | --- | --- | --- | --- | --- | --- | --- | --- |
| NNc1nc(-c2cc(-c3ccon3)n(Cc3ccccc3F)n2)ncc1F [Compound 56] | 60 to 80 | B (0.01 to <0.1 μM) | < 20 | 0.5 to 1 | C (5 to <10 fold increase) | D (10 or <20 fold increase) |  |  |  |  |  |  |
| CCCCCCCCCCC(=O)Nc1cnc(-c2cc(-c3ccon3)n(Cc3ccccc3F)n2)nc1N [Compound 58] |  | E (10 to 50 μM) | 600 to 900 |  | A (no increase to <2 fold increase) | B (2 to <5 fold increase) |  |  |  |  |  |  |
| O=c1[nH]c(-c2cc(-c3ccon3)n(Cc3ccccc3F)n2)ncc1S(=O)(=O)N1CCOCC1 [Compound 60] | 80 to 100 | C (0.1 to <1 μM) | < 20 | 0.5 to 1 | B (2 to <5 fold increase) | D (10 or <20 fold increase) |  |  |  |  |  |  |
| Nc1ccnc(-c2cc(-c3ccon3)n(Cc3cc(F)ccc3F)n2)n1 [Compound 73] |  |  |  |  |  |  | 60 to 80 | C (0.1 to <1 μM) | 60 to 100 | 0.5 to 1 | D (10 or <20 fold increase) | D (10 or <20 fold increase) |
| N#Cc1cc(-c2ncc(F)c(=O)[nH]2)nn1Cc1ccccc1F [Compound 74] |  |  |  |  |  |  | 40 to 60 | C (0.1 to <1 μM) | 40 to 60 | 1 to 5 | B (2 to <5 fold increase) | C (5 to <10 fold increase) |
| O=c1[nH]c(-c2cc(-c3ncon3)n(Cc3cc(F)ccc3F)n2)ncc1F [Compound 75] |  |  |  |  |  |  | 40 to 60 | C (0.1 to <1 μM) | 40 to 60 | 1 to 5 | B (2 to <5 fold increase) | C (5 to <10 fold increase) |
| O=c1[nH]c(-c2cc(-c3ccon3)n(Cc3cccc(Cl)c3F)n2)ncc1F [Compound 77] |  |  |  |  |  |  | 60 to 80 | C (0.1 to <1 μM) | 60 to 100 | 0.01 to 0.5 | C (5 to <10 fold increase) | E (20 to 30 fold increase) |
| Nc1ccnc(-c2cc(-c3ccon3)n(Cc3cccc(Cl)c3F)n2)n1 [Compound 78] |  |  |  |  |  |  | 80 to 100 | B (0.01 to <0.1 μM) | 60 to 100 | 0.5 to 1 | C (5 to <10 fold increase) | E (20 to 30 fold increase) |
| O=c1[nH]c(-c2cc(-c3ccon3)n(Cc3ccccc3F)n2)nc(CF)c1F [Compound 79] |  |  |  |  |  |  | 40 to 60 | D (1 to <10 μM) | 40 to 60 | 5 to 10 | B (2 to <5 fold increase) | D (10 or <20 fold increase) |
